# Assay results: paper PMC3423427, “Design and Synthesis of Potent N-Acylethanolamine-hydrolyzing Acid Amidase (NAAA) Inhibitor as Anti-Inflammatory Compounds” (PLoS ONE, 2012)
# Legend:
# NAAA = settings: cited from earlier work
# rat FAAH = biological target: T1, rat FAAH (Rattus norvegicus, UniProt P97612); assay: FAAH enzymatic assay (recombinant rFAAH protein, LC/MS); assay type: biochemical; settings: for IC50: IC50 ± S.E.M., triplicate, 25 µM anandamide, pH 8.0
# T1 construct: made in house; host or cells: HEK293 cells stably overexpressing rat FAAH (HEK293-rFAAH), a gift from D. Piomelli; crude cell extract
# T1 sequence (P97612 1-579): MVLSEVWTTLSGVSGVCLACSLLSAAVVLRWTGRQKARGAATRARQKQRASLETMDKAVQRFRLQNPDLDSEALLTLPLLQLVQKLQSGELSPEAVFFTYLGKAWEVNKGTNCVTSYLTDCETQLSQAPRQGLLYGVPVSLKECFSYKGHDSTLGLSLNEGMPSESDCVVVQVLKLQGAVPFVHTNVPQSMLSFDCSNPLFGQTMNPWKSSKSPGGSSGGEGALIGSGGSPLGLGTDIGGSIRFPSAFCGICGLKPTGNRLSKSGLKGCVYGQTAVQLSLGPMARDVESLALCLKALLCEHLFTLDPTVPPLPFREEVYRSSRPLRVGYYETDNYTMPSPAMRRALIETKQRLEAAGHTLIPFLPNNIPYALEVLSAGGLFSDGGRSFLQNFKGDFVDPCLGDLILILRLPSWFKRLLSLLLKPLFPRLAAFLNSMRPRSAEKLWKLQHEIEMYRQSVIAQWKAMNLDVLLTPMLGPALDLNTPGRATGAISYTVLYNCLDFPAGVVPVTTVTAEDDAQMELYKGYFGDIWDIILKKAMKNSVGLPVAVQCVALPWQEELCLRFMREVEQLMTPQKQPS
# Experimental: (§1) HEK293-rNAAA or HEK293-rFAAH cells were harvested, washed with PBS, sonicated in 20 mM Tris-HCl (pH 7.5) containing 0.32 M sucrose, and centrifuged at 800 × g for 15 min at 4°C. The supernatants were collected and protein concentrations were measured by BCA protein assay kit (Pierce, Shanghai, China). […] The reactions were terminated by adding 0.2 mL methanol containing 1 nmol heptadecanoic acid and analyzed in LC/MS.
# (§2) We use an Agilent 1200-LC system coupled to a 3200Q TRAP-MS detector equipped with an ESI interface (Agilent Technologies, Shanghai, China). […] The column temperature was set at 40°C. […] Mass spectrometer (MS) detection was ionized by positive-ion atmospheric pressure chemical ionization mode (APCI^+) and monitored in MRM mode. […] Quantifications were calculated at chromatographic peak areas by using Analyst® version 1.4.1. software (Applied Biosystems).
# rat NAAA = biological target: T2, rat NAAA (Rattus norvegicus, UniProt Q5KTC7); assay: NAAA enzymatic assay (recombinant rNAAA protein, LC/MS); assay type: biochemical; settings: for IC50: IC50 ± S.E.M., triplicate, 25 µM heptadecenoylethanolamide, pH 5.0;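 on all read-outs here: reaction product measured by LC/MS using positive APCI ionization with MRM monitoring, quantified from chromatographic peak areas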
# T2 construct: made in house; host or cells: HEK293 cells stably overexpressing rat NAAA (HEK293-rNAAA), a gift from D. Piomelli; crude 800 x g supernatant of sonicated cells
# T2 sequence (Q5KTC7 34-362): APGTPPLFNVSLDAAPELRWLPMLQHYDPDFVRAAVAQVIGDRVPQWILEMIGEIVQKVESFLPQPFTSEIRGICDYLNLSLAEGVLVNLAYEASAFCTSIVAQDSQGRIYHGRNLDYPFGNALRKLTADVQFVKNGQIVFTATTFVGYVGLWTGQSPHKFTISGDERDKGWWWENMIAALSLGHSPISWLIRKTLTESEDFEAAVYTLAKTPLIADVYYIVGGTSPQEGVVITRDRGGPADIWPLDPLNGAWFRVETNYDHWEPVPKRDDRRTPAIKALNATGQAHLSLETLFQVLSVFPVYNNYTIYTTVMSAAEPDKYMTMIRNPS
# Experimental: as §1, §2
IC50 (rat FAAH) [µM],IC50 (rat NAAA) [µM],inhibition ability on FAAH activity (in words) (rat FAAH),inhibition ability on NAAA activity (in words) (rat NAAA),melting point [°C],Compound,potency as NAAA inhibitor relative to CCP (NAAA),mode of NAAA inhibition (NAAA)
,,,,,"O=C(CCc1ccccc1)N[C@H]1COC1=O [(S)-OOPP, (S)-N-(2-oxo-3-oxetanyl)-3-phenylpropionamide]",about 10 fold,
,,,,,"CCCCCCCCCCCCCCCNC(=O)C1CCCCC1 [CCP, N-Cyclohexanecarbonylpentadecylamine]",,reversible and non-competitive
21.8 ± 4.45,25 ± 5.7,,,,"CCCCCCCCCCCCCCCC(=O)N1CCCC1 [Compound 1, 1–Pentadecanyl–carbonyl pyrrolidine]",,
> 100,> 100,complete loss of the inhibition ability,complete loss of the inhibition ability,,"CCCCCCCCCCCCCCCC(=O)NC1CCCC1 [Compound 2, N–Cyclopentylpalmitamide]",,
> 100,> 100,complete loss of the inhibition ability,complete loss of the inhibition ability,,"CCCCCCCCCCCCCCCC(=O)OC1CCCC1 [Compound 4, Cyclopentyl palmitate]",,
> 100,> 100,complete loss of the inhibition ability,complete loss of the inhibition ability,,"CCCCCCCCCCCCCCCC(=O)OC1CCOC1 (stereo not drawn) [Compound 5, Tetrahydrofuran–3–yl palmitate]",,
> 100,> 100,complete loss of the inhibition ability,complete loss of the inhibition ability,57.9 to 60.2,"CCCCCCCCCCCCCCCC(=O)n1cccc1 [Compound 6, 1–Pentadecanyl–carbonyl pyrrole]",,
> 100,> 100,,,,"O=C(Cc1ccccc1)N1CCCC1 [Compound 7, 1–Benzyl–carbonyl pyrrolidine]",,
> 100,> 100,,,,"O=C(CCc1ccccc1)N1CCCC1 [Compound 8, 1–(2–Phenylethyl)–carbonyl pyrrolidine]",,
> 100,> 100,,,,"O=C(CCCc1ccccc1)N1CCCC1 [Compound 9, 1–(3–Phenylpropanyl)–carbonyl pyrrolidine]",,
> 100,38.2 ± 3.79,,,,"O=C(CCCCc1ccccc1)N1CCCC1 [Compound 10, 1–(4–Phenylbutanyl)–carbonyl pyrrolidine]",,
> 100,34.6 ± 4.82,,,,"O=C(CCCCCc1ccccc1)N1CCCC1 [Compound 11, 1–(5–Phenylpentanyl)–carbonyl pyrrolidine]",,
> 100,12.9 ± 3.47,,,,"O=C(CCCCCCc1ccccc1)N1CCCC1 [Compound 12, 1–(6–Phenylhexanyl)–carbonyl pyrrolidine]",,
> 100,37.9 ± 4.58,,,,"O=C(CCCCCCCc1ccccc1)N1CCCC1 [Compound 13, 1–(7–Phenylheptanyl)–carbonyl pyrrolidine]",,
> 100,> 100,,,,"O=C(c1ccc(-c2ccccc2)cc1)N1CCCC1 [Compound 14, 1–(Biphenyl–4–ylcarbonyl)pyrrolidine]",,
> 100,> 100,,,,"O=C(Cc1ccc(-c2ccccc2)cc1)N1CCCC1 [Compound 15, 1–(4–Phenylbenzyl)–carbonyl pyrrolidine]",,
> 100,> 100,,,,"O=C(Cc1ccc(OCc2ccccc2)cc1)N1CCCC1 [Compound 17, 1–(4–Benzyloxy)benzyl–carbonyl pyrrolidine]",,
> 100,> 100,,,,"O=C(CCc1ccc(OCc2ccccc2)cc1)N1CCCC1 [Compound 18, 1–(2–(4–Benzyloxy)phenyl)ethyl–carbonyl pyrrolidine]",,
> 100,> 100,,,,"O=C(c1ccc2ccccc2c1)N1CCCC1 [Compound 19, 1–(2–Naphthalenyl)carbonyl pyrrolidine]",,
> 100,> 100,,,,"O=C(Cc1ccc2ccccc2c1)N1CCCC1 [Compound 20, 1–(2–Naphthalenyl)acetyl pyrrolidine]",,
> 100,> 100,full loss of inhibition,full loss of inhibition,151.8 to 154.6,"O=C(NCc1ccc(-c2ccccc2)cc1)C1CCCC1 [Compound 23, 4–Phenylbenzyl cyclopentanyl carboxamide]",,
> 100,> 100,full loss of inhibition,full loss of inhibition,,"O=C(OCc1ccc(-c2ccccc2)cc1)C1CCCC1 [Compound 24, 4–Phenylbenzyl cyclopentanyl carboxylate]",,
> 100,> 100,full loss of inhibition,full loss of inhibition,,"c1ccc(-c2ccc(CCCN3CCCC3)cc2)cc1 [Compound 25, 1–(3–Biphenyl–4–ylpropyl)pyrrolidine]",,

Compound,IC50 (rat FAAH) [µM],IC50 (rat NAAA) [µM],inhibition ability on FAAH activity (in words) (rat FAAH),inhibition ability on NAAA activity (in words) (rat NAAA),melting point [°C],potency as NAAA inhibitor relative to CCP (NAAA),mode of NAAA inhibition (NAAA)
"CCCCCCCCCCCCCCCC(=O)N1CCCCC1 [Compound 3, Pentadecanyl–carbonyl piperidine]",> 100,> 100,complete loss of the inhibition ability,complete loss of the inhibition ability,,,
"O=C(NCc1ccc(-c2ccccc2)cc1)N1CCCC1 [Compound 21, N–(Biphenyl–4–ylmethyl)pyrrolidinyl–1–carboxamide]",> 100,> 100,full loss of inhibition,full loss of inhibition,,,
"O=C(OCc1ccc(-c2ccccc2)cc1)N1CCCC1 [Compound 22, Biphenyl–4–ylmethyl pyrrolidinyl–1–carboxylate]",> 100,> 100,full loss of inhibition,full loss of inhibition,,,
